Measured values from patent US20220273807A1, “CONJUGATES FOR USE IN METHODS OF TREATING CANCER” (AstraZeneca AB, priority 2018, published 2022).

Tests used:
[1] = system: NCI-H1048 tumor cells; experiment: Human small cell lung cancer tumor model (NCI-H1048), single agent and combination; type: in vivo, C.B.-17 SCID female mice; conditions: AZD2014 15 mg/kg daily (qd), oral; p<0.05
Procedure: Compound 1 was formulated in citrate/phosphate buffer pH 5.0 containing 4.5% w/v glucose and dosed intravenously (iv) in a volume of 5 ml/kg. AZD2014 was formulated in 0.5% hydroxypropyl methylcellulose/0.1% Tween 80 and dosed oral in a volume of 10 ml/kg 5×10^6 NCI-H1048 tumor cells were injected subcutaneously in the right flank of C.B.-17 SCID female mice in a volume of 0.1 mL containing 50% matrigel. Tumor volume (measured by caliper) was calculated using the formula: length (mm) x width (mm)^2×0.52. For efficacy studies, mice were randomized based on tumor volume and growth inhibition was assessed by comparison of the differences in tumor volume between control and treated groups. Dosing began when mean tumor volume reached approximately 124 mm^3.

[2] = system: RS4; 11 cells; experiment: Efficacy in RS4:11 xenograft model; type: in vivo, mouse; conditions: Compound A 5 mg/kg
Procedure: Preparation of Compound PBS formulations for dosinq RS4:11 efficacy study: The appropriate amounts of Compound 1 were weighed into a volumetric flask. 10 mL Dulbecc's Phosphate Buffered Saline (PBS) was added and formulations were then stirred until the compound dissolved entirely.
Formulation of Compound A in 30% w/v HP-β-CD
30% w/v HP-β-CD vehicle was prepared. 3 g HP-β-CD (Roquette Kleptose, parenteral grade) was weighed into a 10 mL volumetric flask and 8 mL WFI added and stirred (or sonicated) to dissolve. Once dissolved the volume was made up to 10 mL with WFI.
The appropriate amount of Compound A was weighed into a 10 mL volumetric flask. 8 mL of 30% w/v HP-β-CD vehicle was then added and the formulation stirred. 1M MSA was added dropwise until the pH was reduced to about 2. The formulation was then stirred until the compound dissolved entirely. The pH was measured and adjusted to pH 4, dropwise using 1M MSA or NaOH. […] The final pH was measured and recorded and the formulation filtered through a 0.22 uM filter prior to administration. […]
On specific day, for each treated group, calculate Inhibition value by formula: Inhibition %=(CG−TG)*100/(CG−1), in which “CG” means the geometric mean of rtv of the control group and “TG” means the Geometric Mean of Relative Tumor Volume (rtv) of the treated group. “CG” should use the corresponding control group of the treated group when calculated. […]

[3] = system: OCI-Ly10 tumor cells; experiment: Human DLBCL xenograft model (OCI-Ly10), single agent and combination; type: in vivo, C.B.-17 SCID female mice; conditions: single agent acalabrutinib 12.5 mg/kg bid po
Procedure: 5×10^6 OCI-Ly10 tumor cells were injected subcutaneously in the right flank of C.B.-17 SCID female mice in a volume of 0.1 mL containing 50% matrigel. Compound 1 was formulated in citrate/phosphate buffer pH 5.0, diluted 1 to 10 with 5% glucose containing 1% w/v Kolliphor HS15, and dosed as a weekly intravenous (iv) administration at a volume of 5 mL/kg at a dose of 103 mg/kg (30 mg/kg API). Acalabrutinib was formulated in 0.5% hydroxypropyl methyl cellulose/0.2% Tween 80, and dosed twice a day (bid) as an oral (po) administration at a volume of 10 mL/kg at a dose of 12.5 mg/kg. Tumor volumes (measured by caliper), animal body weight, and tumor condition were recorded twice weekly for the duration of the study. The tumor volume was calculated using the formula: length (mm) x width (mm)^2×0.52. For efficacy studies, growth inhibition from the start of treatment was assessed by comparison of the differences in tumor volume between control and treated groups. Dosing began when mean tumor size reached approximately 166 mm3.

CNC(=O)c1cccc(-c2ccc3c(N4CCOC[C@@H]4C)nc(N4CCOC[C@@H]4C)nc3n2)c1 [AZD2014, vistusertib]
anti-tumor activity, TGI [1]: 84%

CN(CCO)CC[C@H](CSc1ccccc1)Nc1ccc(S(=O)(=O)NC(=O)c2ccc(N3CCC([C@@H](O)c4ccccc4-c4ccc(Cl)cc4)CC3)cc2)cc1S(=O)(=O)C(F)(F)F [Compound A]
% Inhibition Day (47) [2]: >100%
% Regression Day(47) [2]: 90%

CC#CC(=O)N1CCC[C@H]1c1nc(-c2ccc(C(=O)Nc3ccccn3)cc2)c2c(N)nccn12 [acalabrutinib]
tumor growth inhibition (TGI) [3]: ~58%
